Data on 2 compounds can be found in US6613317B1, “Volatile attractants for diabrotica species” (priority 1988, dated 2003).

The subject of assay [1] is NCR. Kind of assay: Limit of response rating of squash blossom volatiles on sticky traps (Example 5). The assay is classed as in vivo, Diabrotica barberi. The settings on record: 24 hour; four replicate traps; 0.01 mg to 200 mg. The gist of the method: (§1)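 Adult Diabrotica beetles were tested against cylindrical sticky traps baited with cotton wicks holding 0.01 mg to 200 mg of individual Cucurbita maxima blossom volatiles. Response limit rated by trap catch.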

In another assay the test system is SCR. The assay is described as above. The assay is classed as in vivo, Diabrotica undecimpunctata howardi. The following applies: 24 hour; four replicate traps; 0.01 mg to 200 mg. Summed up:
as §1

Assay [2] relates to NCR. Kind of assay: Attraction to baited traps relative to controls (summary). The assay is classed as in vivo, Diabrotica barberi. The following applies: summary statement. The source says: 4-Methylphenylethanol, 4-chlorophenylethanol, 4-fluorophenylethanol, phenylethanol, phenylpropanol, 4-methoxyphenylethanol, 3-methoxyphenylethanol, 2-methoxyphenylethanol, 4-methoxyphenylpropanol, phenylethylamine, and phenylpropylamine attract NCR at rates approximately 5-50 times controls.

Another assay relates to WCR. Kind of assay: Limit of response rating of squash blossom volatiles on sticky traps (Example 5). The assay is classed as in vivo, Diabrotica virgifera virgifera. The settings on record: 24 hour; four replicate traps; 0.01 mg to 200 mg. Summed up:
as §1

The next assay relates to D. u. howardi adults. The assay is classed as in vivo, Diabrotica undecimpunctata howardi. The following applies: 1% incorporated into TEX×PEP bait, petri-dish tests. The source says:
A noncucurbit carrier, 10-mesh corn grits (71% of which passed through a 2-mm screen), was obtained from Illinois Cereal Mills, Paris, Ill. (designated as pesticide carrier grits, 980). This carrier was impregnated with different levels of cucurbitacins by addition of varying amounts of a chloroform extract of AND×MAX fruit containing 0.12% cucurbitacins B and D (Metcalf, et al., Proc. Natl. Acad. Sci. USA, 77:3769-3772 (1980), Metcalf, et al., Environ. Entomol., 11:921-927 (1982)). The cucurbitacin-containing areas were scraped from plates, extracted in anhydrous methanol, centrifuged, and the UV absorption at 210 nm determined by UV spectrophotometry. Content of cucurbitacins was quantified from standard curves of pure cucurbitacins B, D, E and I, and E-glycoside (Metcalf, et al., Proc. Natl. Acad. Sci. USA, 77:3769-3772 (1980), Metcalf, et al., Environ. Entomol., 11:921-927 (1982)).
The various dried, ground, and insecticide-treated baits were given preliminary field evaluation by placing uniform amounts in petri-dish halves (150-mm diameter) that were placed at random on the ground in cucurbit and corn rows heavily infested ith SCR, WCR, and SCB adults. Ten dishes were used for each treatment; the maximum dosage of dried baits used was 300 mg per dish, equivalent to […]. Mortality counts of adult beetles in the dishes were made after 20-40 h.

For assay [3], the system named is NCR. The following applies: in vivo; cited from earlier work.
The test system of assay [4] is southern corn rootworm (SCR) adults. Kind of assay: Sticky trap attraction in sweet corn plots (Example 1). It is filed as in vivo, Diabrotica undecimpunctata howardi. The settings on record: August first year, single compounds 100 mg per trap. The gist of the method:
(§2)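 Field trapping in sweet-corn plots beside a Blue Hubbard squash trap crop; lures on mineral-oil-impregnated cotton wicks atop sticky paper-carton traps on 1-m posts, 4 replicates in randomized complete blocks. Beetles counted after 24 h; VIPAE/VIP/TIC mixtures and single components at 1–300 mg per trap, ANOVA/Duncan at P=0.05.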

The test system of assay [5] is western corn rootworm (WCR) adults. Described as above. The settings on record: August first year, single compounds 100 mg per trap. The assay is classed as in vivo, Diabrotica virgifera virgifera. Summed up:
as §2

Setting [6] is: South Farms, 24 h, mixture 20 mg of each component, n = 4.

Molecules are shown by their SMILES.

`OCC=Cc1ccccc1` [XVIII, cinnamyl alcohol]: the “Attractant Rating NCR (by limit of response)” value in the assay on NCR [1] is recorded as “+3 (3-10)”. In addition, the “Attractant Rating SCR (by limit of response)” value with SCR is reported as “+2 (10-30)”. Also, in the assay with NCR [2], the “rate of attraction of NCR relative to controls” value is listed as 5-20 times. In addition, the “Attractant Rating WCR (by limit of response)” value in the assay with WCR was “+1 (30-100)”.
Regarding `C=CCc1ccc(O)c(OC)c1` [XXIV, eugenol], the “increase in the kill of SCR beetles” value in the assay on D. u. howardi adults is reported as 4 fold. In addition, in the assay on NCR [3], the “LR for NCR, most effective volatile attractant yet identified” value is recorded as 10 mg. The “Mean number of SCR per trap (±standard deviation)” value in assay [4] (setting [6]) is recorded as 2.8 ± 2.8 per trap. Besides, the “relative percent activity of the mean SCR trap catch as compared with the highest mean value in the column” value in assay [4] (mixture 20 mg each component) is on record as 13%. For the same compound, the “Mean number of WCR per trap (±standard deviation)” value in assay [5] (setting [6]) was 2.8 ± 1.0 per trap. Moreover, the “relative percent activity of the mean WCR trap catch as compared with the highest mean value in the column” value in assay [5] (mixture 20 mg each component) was 41%.
